What all share (assay): Microtitre plate assay, IC90 determination
Common to all, as to type: cell-based

The test system of assay [1] is BSU 43639 (Bacillus subtilis (ATCC43639)). Particulars: for IC90 (μg/ml) BSU 43639: Bacillus subtilis (ATCC43639); for IC90: Bacillus subtilis, ATCC43639, Bacillus subtilis (ATCC43639), read-out: IC90 (μg/ml) BSU 43639.
Assay [2] relates to PAE 27853 (Pseudomonas aeruginosa (ATCC27853)). Particulars: for IC90 (μg/ml) PAE 27853: Pseudomonas aeruginosa (ATCC27853); for IC90: Pseudomonas aeruginosa, ATCC27853, Pseudomonas aeruginosa (ATCC27853), read-out: IC90 (μg/ml) PAE 27853.
Assay [3] has as its system EFA 29212 (Enterococcus faecalis (ATCC29212)). Particulars: for IC90 (μg/ml) EFA 29212: Enterococcus faecalis (ATCC29212); for IC90: Enterococcus faecalis, ATCC29212, Enterococcus faecalis (ATCC29212), read-out: IC90 (μg/ml) EFA 29212.
Assay [4] has as its system SPY 8668 (Streptococcus pyogens (ATCC8668)). Particulars: for IC90 (μg/ml) SPY 8668: Streptococcus pyogens (ATCC8668).
The test system of assay [5] is LMO 49594 (Listeria monocytogenes (ATCC49594)). Particulars: for IC90 (μg/ml) LMO 49594: Listeria monocytogenes (ATCC49594); for IC90: Listeria monocytogenes, ATCC49594, Listeria monocytogenes (ATCC49594), read-out: IC90 (μg/ml) LMO 49594.
In assay [6] the test system is STA 25923 (Staphylococcus aureus (ATCC25923)). The settings on record: for IC90 (μg/ml) STA 25923: Staphylococcus aureus (ATCC25923); for IC90: Staphylococcus aureus, ATCC25923, Staphylococcus aureus (ATCC25923), read-out: IC90 (μg/ml) STA 25923.
Assay [7] deals with SPN 6305 (Streptococcus pneumoniae (ATCC6305)). Particulars: for IC90 (μg/ml) SPN 6305: Streptococcus pneumoniae (ATCC6305). In short, it runs like this: (§1)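 Growth-inhibition endpoint: resazurin added 3 h after inoculation, plates incubated overnight, fluorescence at 530/590 nm after 24 h at 37 °C. Inocula of roughly 10–60 CFU per well in Mueller-Hinton medium; compounds titrated five-fold. IC90 reported as μg/ml.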

Assay [8] has as its system STA 29213 (Staphylococcus aureus (ATCC29213)). The settings on record: for IC90 (μg/ml) STA 29213: Staphylococcus aureus (ATCC29213); for IC90: Staphylococcus aureus, ATCC29213, Staphylococcus aureus (ATCC29213), read-out: IC90 (μg/ml) STA 29213. An outline of the steps:
as §1

In assay [9] the test system is STA RMETH (methicilline resistant Staphylococcus aureus (MRSA), a clinical isolate from the University of Antwerp). The settings on record: for IC90: Staphylococcus aureus, MRSA, read-out: IC90 (μg/ml) STA RMETH.

Converted amounts (≈) assume the structure as drawn.

On to `COc1nc2ccc(Br)cc2cc1C(c1ccccc1)C(O)(CCCN1CCCC1)c1ccc2ccccc2c1` (racemic) [Compound 49], for which the “IC90 (μg/ml) BSU 43639” value in assay [1] amounted to 59.6 µg/mL (≈ 100 µM). Further, the “IC90 (μg/ml) PAE 27853” value in [2] worked out at 53.1 µg/mL (≈ 89.2 µM). Also, the “IC90 (μg/ml) EFA 29212” value in assay [3] is 47.3 µg/mL (≈ 79.4 µM). Besides, in [4], the “IC90 (μg/ml) SPY 8668” value worked out at 47.3 µg/mL (≈ 79.4 µM). The “IC90 (μg/ml) LMO 49594” value in [5] was 47.3 µg/mL (≈ 79.4 µM). For the same compound, the “IC90 (μg/ml) STA 25923” value in assay [6] came to 59.6 µg/mL (≈ 100 µM). In addition, the “IC90 (μg/ml) SPN 6305” value in assay [7] was determined as 11.9 µg/mL (≈ 20 µM). Moreover, the “IC90 (μg/ml) STA 29213” value in [8] was determined as 47.3 µg/mL (≈ 79.4 µM). The “IC90 (μg/ml) STA RMETH” value in [9] amounted to 59.6 µg/mL (≈ 100 µM).
For `COc1nc2ccc(Br)cc2cc1C(c1ccccc1)C(O)(CCCCN(C)C)c1cccc2ccccc12` (stereo not drawn) [Compound 19], the IC90 in assay [1] turned out to be 14.7 µg/mL (≈ 25.2 µM); in assay [2], 14.7 µg/mL (≈ 25.2 µM); in [3], 14.7 µg/mL (≈ 25.2 µM); in assay [4] (Streptococcus, ATCC8668, Streptococcus pyogens (ATCC8668), read-out: IC90 (μg/ml) SPY 8668), 14.7 µg/mL (≈ 25.2 µM); in assay [5], 11.6 µg/mL (≈ 19.9 µM); in assay [6] it was 14.7 µg/mL (≈ 25.2 µM). For the same compound, the IC90 in assay [7] (Streptococcus pneumoniae, ATCC6305, Streptococcus pneumoniae (ATCC6305), read-out: IC90 (μg/ml) SPN 6305) turned out to be 14.7 µg/mL (≈ 25.2 µM); in assay [8], 14.7 µg/mL (≈ 25.2 µM); in [9] it was 14.7 µg/mL (≈ 25.2 µM).
For `COc1nc2ccc(Br)cc2cc1C(c1ccccc1)C(O)(CCCCN(C)C)c1ccccc1` (stereo not drawn) [Compound 20], the IC90 was 10.6 µg/mL (≈ 19.9 µM) in [1]; 10.6 µg/mL (≈ 19.9 µM) in assay [2]; 10.6 µg/mL (≈ 19.9 µM) in assay [3]; 13.4 µg/mL (≈ 25.1 µM) in [5]; 10.6 µg/mL (≈ 19.9 µM) in [6]; 10.6 µg/mL (≈ 19.9 µM) in [8]. In addition, the IC90 in [9] was 10.6 µg/mL (≈ 19.9 µM). The “IC90 (μg/ml) SPY 8668” value in assay [4] was 4.2 µg/mL (≈ 7.87 µM). Moreover, the “IC90 (μg/ml) SPN 6305” value in [7] came out at 2.1 µg/mL (≈ 3.94 µM).
As to `COc1nc2ccc(Br)cc2cc1C(c1ccccc1)C(O)(CCCCN(C)C)c1ccccc1` (stereo not drawn) [Compound 21], the “IC90 (μg/ml) BSU 43639” value in [1] was 10.6 µg/mL (≈ 19.9 µM). The “IC90 (μg/ml) PAE 27853” value in [2] came out at 10.6 µg/mL (≈ 19.9 µM). Further, the “IC90 (μg/ml) EFA 29212” value in assay [3] worked out at 21.2 µg/mL (≈ 39.7 µM). Moreover, the “IC90 (μg/ml) SPY 8668” value in assay [4] is 10.6 µg/mL (≈ 19.9 µM). The “IC90 (μg/ml) LMO 49594” value in [5] was 10.6 µg/mL (≈ 19.9 µM). The “IC90 (μg/ml) STA 25923” value in assay [6] came out at 10.6 µg/mL (≈ 19.9 µM). Besides, the “IC90 (μg/ml) SPN 6305” value in assay [7] turned out to be 11.9 µg/mL (≈ 22.3 µM). The “IC90 (μg/ml) STA 29213” value in assay [8] was 10.6 µg/mL (≈ 19.9 µM). Also, in assay [9], the “IC90 (μg/ml) STA RMETH” value amounted to 10.6 µg/mL (≈ 19.9 µM).
For `COc1nc2ccc(Br)cc2cc1C(c1ccccc1)C(O)(CCCCN(C)C)c1ccc2ccccc2c1` (stereo not drawn) [Compound 23], the “IC90 (μg/ml) BSU 43639” value in [1] was 58.4 µg/mL (≈ 100 µM). Further, in assay [2], the “IC90 (μg/ml) PAE 27853” value was determined as 1.9 µg/mL (≈ 3.26 µM). Besides, in [3], the “IC90 (μg/ml) EFA 29212” value worked out at 4.1 µg/mL (≈ 7.03 µM). Further, the “IC90 (μg/ml) SPY 8668” value in [4] stood at 46.4 µg/mL (≈ 79.5 µM). For the same compound, the “IC90 (μg/ml) LMO 49594” value in assay [5] amounted to 36.8 µg/mL (≈ 63.1 µM). Further, in assay [6], the “IC90 (μg/ml) STA 25923” value was 58.4 µg/mL (≈ 100 µM). Besides, in [7], the “IC90 (μg/ml) SPN 6305” value was found to be 11.6 µg/mL (≈ 19.9 µM). The “IC90 (μg/ml) STA 29213” value in [8] came out at 1.9 µg/mL (≈ 3.26 µM). In addition, the “IC90 (μg/ml) STA RMETH” value in assay [9] worked out at 58.4 µg/mL (≈ 100 µM).
Take `COc1nc2ccc(Br)cc2cc1C(c1ccccc1)C(O)(CCCCN(C)C)c1ccc2ccccc2c1` (stereo not drawn) [Compound 24]: in assay [1], the “IC90 (μg/ml) BSU 43639” value is 1.9 µg/mL (≈ 3.26 µM). The “IC90 (μg/ml) PAE 27853” value in assay [2] turned out to be 1.9 µg/mL (≈ 3.26 µM). For the same compound, in assay [3], the “IC90 (μg/ml) EFA 29212” value amounted to 1.9 µg/mL (≈ 3.26 µM). Also, the “IC90 (μg/ml) SPY 8668” value in assay [4] was found to be 1.9 µg/mL (≈ 3.26 µM). For the same compound, the “IC90 (μg/ml) LMO 49594” value in assay [5] is 1.9 µg/mL (≈ 3.26 µM). Also, the “IC90 (μg/ml) STA 25923” value in assay [6] turned out to be 0.5 µg/mL (≈ 0.857 µM). For the same compound, the “IC90 (μg/ml) SPN 6305” value in [7] stood at 1.9 µg/mL (≈ 3.26 µM). Further, the “IC90 (μg/ml) STA 29213” value in assay [8] amounted to 1.9 µg/mL (≈ 3.26 µM). In addition, the “IC90 (μg/ml) STA RMETH” value in [9] amounted to 1.9 µg/mL (≈ 3.26 µM).
Regarding `COc1nc2ccc(Br)cc2cc1C(c1ccccc1)C(O)(CCCCN(C)C)c1ccc2ccccc2c1` (stereo not drawn) [Compound 25], the “IC90 (μg/ml) BSU 43639” value in assay [1] is 58.4 µg/mL (≈ 100 µM). The “IC90 (μg/ml) PAE 27853” value in assay [2] was 1.9 µg/mL (≈ 3.26 µM). Moreover, the “IC90 (μg/ml) EFA 29212” value in assay [3] is 4.1 µg/mL (≈ 7.03 µM). Also, the “IC90 (μg/ml) SPY 8668” value in assay [4] came out at 9.3 µg/mL (≈ 15.9 µM). The “IC90 (μg/ml) LMO 49594” value in assay [5] was 9.3 µg/mL (≈ 15.9 µM). In assay [6], the “IC90 (μg/ml) STA 25923” value turned out to be 58.4 µg/mL (≈ 100 µM). Moreover, the “IC90 (μg/ml) SPN 6305” value in assay [7] came to 2.3 µg/mL (≈ 3.94 µM). In addition, the “IC90 (μg/ml) STA 29213” value in [8] was 1.9 µg/mL (≈ 3.26 µM). Also, in assay [9], the “IC90 (μg/ml) STA RMETH” value is 58.4 µg/mL (≈ 100 µM).
